Literature values, collected in patent publication US20240237652A1, “Biocidal Composition and Method” (ARXADA, LLC, priority 2021, published 2024).

Experiments:
[1] = tested on: bacteria, fungi, and yeast
[2] = neutral pH

Molecule | amount required for a reliable and quick biocidal activity [1] | solubility in water [2]
O=c1[nH]sc2ccccc12 [BIT, 1,2-benzisothiazolin-3-one] | ≤ 500 ppm | 
Zinc pyrithione [ZPT] |  | 8 ppm
